Laboratory results published in patent US11179393B2, “Methods of treating or preventing preterm labor” (priority 2014, dated 2021).

Tested on: muscarinic receptor
Test: Test on salivary secretion in rat (oxotremorine-induced), compared with rhythmic bladder contraction test
Assay type: in vivo
Conditions: anesthetized Wistar rat; ID50 = 50% inhibition of saliva, ED30 = 30% inhibition of bladder contraction
Experimental: a. Test on Rhythmic Bladder Contraction in Rat
A female Wistar rat (130-200 g) is subjected to urethane anesthesia (1.0 g/kg s.c.), followed by ligation of the ureter on the kidney side. A urethral catheter is allowed to remain in the bladder, and about 1.0 mL of physiological saline is injected into the bladder through the catheter to cause rhythmic bladder contraction. Intravesical pressure is measured by a pressure transducer. After rhythmic contraction continues stable for at least 5 minutes, the test compound is cumulatively administered from the external jugular vein. Five to ten minutes later, the intravesical pressure is measured. An inhibition ratio of bladder contraction is determined compared with the bladder contraction before administration of the test compound and the dose of the test compound required for 30% inhibition of the bladder contraction before administration is designated as ED30.
b. Test on Salivary Secretion in Rat
A male Wistar rat (160-190 g) is subjected to anesthesia with urethane (0.8 g/kg i.p.), and the test compound is administered (to the control group: solvent). Fifteen minutes later, 0.8 μmol/kg of oxotremorine is administered. In each case, the drug is administered through the femoral artery. The saliva secreted for 5 minutes after the administration of oxotremorine is collected and weighed. […]

Structure (SMILES): CN1[C@@H]2CC[C@H]1C[C@@H](OC(=O)C(CO)c1ccccc1)C2 (stereo partly shown) [atropine]
- ID50 value (salivary secretion) relative to ED30 value (rhythmic bladder contraction): substantially the same
